According to paper PMC6132986, “Assessing the toxicity of thiamethoxam, in natural LUFA 2.2 soil, through three generations of Folsomia candida” (Ecotoxicology (London, England), 2018):
Several values for one entry are separate records, joined by “and”; a condition that tells them apart may be missing. Equal values may be shown once. Read-outs that look alike come from different tables or passages of the source.

How the values were obtained:
[1] = tested on: Folsomia candida; conditions: cited from earlier work
[2] = tested on: Folsomia candida; assay: Folsomia candida multigeneration (P, F1, F2) survival and reproduction test in freshly spiked LUFA 2.2 soil; format: in vivo; conditions: nominal concentrations
Method: All tests were performed using natural standard LUFA 2.2 soil (LUFA Speyer, Germany), having approximately 1.6% organic carbon, water holding capacity (WHC) of 45%, and soil pH (0.01 M CaCl2) measured in a preliminary test, ranging between 5.03 and 5.87.
Stock solutions of both compounds were prepared in milli-Q water in order to spike the chemicals in the test soil and at the same time bring its moisture content to 50% of the water holding capacity (WHC). The concentration range used for both compounds was: Control −0.04 −0.12 −0.37 −1.1 −3.3 −10 mg a.s./kg dry soil. Due to the toxic effect of the neonicotinoids, the three highest concentrations had to be dropped for F1 and F2 generations. Tests were performed in 100 ml glass jars, containing 30 g moist soil, using five replicate test jars with animals, and two replicates containing approximately 15 g of soil each, without animals (soil analysis). All the test jars were weighed at the start of the test, so the water loss could be checked and replenished, if needed, on a weekly basis.
Folsomia candida Willem 1902 is a cosmopolitan arthropod, belonging to the Collembola order, which is phylogenetically related to the Insecta. The family Isotomidae have a ventral tube or collophore which is involved in the exchange of fluids with the external environment, being an important route of exposure to contaminants present in the pore water. Sexual maturity of F. candida is achieved between 21 to 24 days after hatching (sixth instar), and each individual can lay about 30 to 50 eggs per batch (Fountain and Hopkin [2005]). Adults of this species were taken from cultures at the Department of Ecological Science at the Vrije Universiteit in Amsterdam. In order to obtain synchronized animals, adults were transferred from the culture to 125 ml translucent plastic boxes with a 2 cm layer of plaster of Paris and activated charcoal (8:1), moistened with water, and left for a period of 2–3 days to lay eggs, after which they were removed. The eggs were incubated under a 12 h light/12 h dark regime at 20°C and 75% relative humidity, where they hatched. Juveniles of 10–12 days old were used for starting the test for the parental (P) generation.
Ten age-synchronized animals (10–12 days old) were added to the replicate test jars in generation P. For generations F1 and F2 the age of the animals transferred was around 8–9 days. […] The same procedure was performed for ending the tests with the F1 (after 35–36 days) and F2 (28 days) generations. At the end of the tests, the jars were flooded with water to allow the animals to float and being photographed using a Nikon COOLPIX P510 camera. The images were analysed using the software ImageJ, a Java-based processing program adjusted for counting the animals. For the P and F1 generations, only the juveniles produced in all replicates of each concentration were transferred, using a sieve, to a single container with a plaster of Paris bottom, and left overnight in a climate room, at 20 ± 2 °C, with a 75% relative humidity and a photoperiod of 16:8 h […]. On the following day, batches of 10 randomly selected animals were transferred to jars, with their respective concentration, filled with soil freshly spiked, and covered with an opaque black plastic lid, loosely attached to the rim to allow for aeration. At the start and every week a few grains of dry baker’s yeast (Instant yeast from Algist Bruggeman N.V, Ghent, Belgium) and water were added to the test vessels if needed.
All the dose-response data was analysed using the package “drc”(dose response curve) in the software R, using a general model fitting function–drm, with the option for model select (Ritz and Streibig [2005]). The endpoints LC50, addressing the effects on adult survival, and ECx, addressing sub-lethal effects on the juvenile population were expressed on the basis of nominal soil concentrations.

[3] = cited from earlier work
[4] = Chemical analysis (LC-MSMS) and degradation of thiamethoxam in LUFA 2.2 soil; format: physicochemical
Method: The samples were analysed for thiamethoxam by the commercial certified analytical laboratory Groen Agro Control in Delfgauw, The Netherlands, using LC-MSMS. Detection limit was 0.01 mg/kg dry soil.
Using data on the measured concentrations of thiamethoxam, half-life (DT50) values were estimated assuming first order degradation kinetics. The equation C = C0 × e^−k×t was fitted to the data, with C = concentration at time t in days, C0 is concentration at t = 0 and k = degradation rate constant (day^−1). DT50 was derived as ln(2)/k.

[5] = pH 7, 20°C; ref Jeschke et al. [2011]; cited from earlier work
[6] = LUFA 2.2 soil, ref De Lima e Silva et al. [2017], van Gestel et al. [2017]
[7] = Lufa 2.2 soil, ref de Lima e Silva et al. [2017]
[8] = Lufa 2.2 soil, ref van Gestel et al. [2017]
[9] = sphagnum peat (10%), kaolinite clay (20%), quartz sand (70%), ref Reynolds [2008]
[10] = F1 generation, 35-36 days exposure
[11] = F1 generation, 35-36 days exposure, listed as pure thiamethoxam
[12] = F2 generation, 28 days exposure
[13] = F2 generation, 28 days exposure, listed as pure thiamethoxam

O=[N+]([O-])NC1=NCCN1Cc1ccc(Cl)nc1 [Imidacloprid, imidacloprid]
EC50 [1, 6]: 0.26–0.29 mg a.s./kg dry soil | LC50 [1, 6]: 0.44–0.47 mg a.s./kg dry soil | EC50 [1, 7]: 0.26 mg a.s./kg | LC50 [1, 7]: 0.47 mg a.s./kg | EC50 [1, 8]: 0.29 mg a.s./kg | LC50 [1, 8]: 0.44 mg a.s./kg | EC50 [1, 9]: 0.26 mg a.s./kg | LC50 [1, 9]: 0.86 mg a.s./kg

CN1COCN(Cc2cnc(Cl)s2)/C1=N\[N+](=O)[O-] [Thiamethoxam Pure, thiamethoxam]
EC50 (reproduction) [2, 10]: 0.23 (0–0.52) mg a.s./kg dry soil | LC50 (adult survival) [2, 10]: >0.37 mg a.s./kg dry soil | EC50 (reproduction) [2, 11]: 0.23 mg a.s./kg dry soil | LC50 (adult survival) [2, 11]: > 0.37 mg a.s./kg dry soil | EC10 (reproduction) ([2]; F1 generation): 0.06 (0–0.14) mg a.s./kg dry soil | EC20 (reproduction) ([2]; F1 generation): 0.09 (0–0.20) mg a.s./kg dry soil | EC50 (reproduction) [2, 12]: 0.30 (0.09–0.50) mg a.s./kg dry soil | LC50 (adult survival) [2, 12]: >0.37 mg a.s./kg dry soil | EC50 (reproduction) [2, 13]: 0.30 mg a.s./kg dry soil | LC50 (adult survival) [2, 13]: > 0.37 mg a.s./kg dry soil | EC10 (reproduction) ([2]; F2 generation): 0.15 (0–0.64) mg a.s./kg dry soil | EC20 (reproduction) ([2]; F2 generation): 0.20 (0–0.63) mg a.s./kg dry soil | EC50 (reproduction) ([2]; Parental generation, 28 days exposure (Actara 27 days)): 0.23 (0.20–0.30) mg a.s./kg dry soil | LC50 (adult survival) ([2]; Parental generation, 28 days exposure (Actara 27 days), 95% CI in brackets): 0.32 (0.30–0.40) mg a.s./kg dry soil | LC50 (adult survival) ([2]; Parental generation, 28 days exposure (Actara 27 days), 95% CI in brackets, listed as pure thiamethoxam): 0.32–0.35 mg a.s./kg dry soil and 0.32 mg a.s./kg dry soil | EC50 (reproduction) ([2]; Parental generation, 28 days exposure (Actara 27 days), listed as pure thiamethoxam): 0.23–0.25 mg a.s./kg dry soil | EC10 (reproduction) ([2]; Parental generation): 0.07 (0.03–0.10) mg a.s./kg dry soil | EC20 (reproduction) ([2]; Parental generation): 0.12 (0.070–0.20) mg a.s./kg dry soil | half-life in soil ([3]; ref Bonmatin et al. [2015]): ≤ 355 days | half-life ([4]; LUFA 2.2 soil, average over nominal 0.12-1.1 mg/kg dry soil, read-out: DT50 (half-life in soil), average (converted)): 139 days | DT50 (half-life in soil), range over the concentrations ([4]; LUFA 2.2 soil, nominal 0.12-1.1 mg/kg dry soil): 112 to 165 days | half-life ([4]; LUFA 2.2 soil, nominal 0.12-1.1 mg/kg dry soil, read-out: DT50 (half-life in soil), range over the concentrations): 112 to 156 days | Concentration in soil as % of the nominal ([4]; first day of the experiment (t = 0), pure and Actara treatments together): 75–100% | half-life at 0.12 mg/kg dry soil ([4]; nominal 0.12 mg/kg dry soil, LUFA 2.2 soil, first order degradation kinetics, read-out: DT50 (half-life in soil) (converted)): 165 days | half-life at 0.37 mg/kg dry soil ([4]; nominal 0.37 mg/kg dry soil, LUFA 2.2 soil, first order degradation kinetics, read-out: DT50 (half-life in soil) (converted)): 140 days | half-life at 1.1 mg/kg dry soil ([4]; nominal 1.1 mg/kg dry soil, LUFA 2.2 soil, first order degradation kinetics, read-out: DT50 (half-life in soil) (converted)): 112 days | Recovery Rate ([4]; t = 0, nominal 0.12 mg/kg dry soil): 75% | Measured Concentration of thiamethoxam in soil ([4]; t = 0, nominal 0.12 mg/kg dry soil, LUFA 2.2 soil): 0.09 mg/kg dry soil | Recovery Rate ([4]; t = 0, nominal 0.37 mg/kg dry soil): 84% | Measured Concentration of thiamethoxam in soil ([4]; t = 0, nominal 0.37 mg/kg dry soil, LUFA 2.2 soil): 0.31 mg/kg dry soil | Recovery Rate ([4]; t = 0, nominal 1.1 mg/kg dry soil): 85% | Measured Concentration of thiamethoxam in soil ([4]; t = 0, nominal 1.1 mg/kg dry soil, LUFA 2.2 soil): 0.94 mg/kg dry soil | Recovery Rate ([4]; t = 28 days, nominal 0.12 mg/kg dry soil): 66% | Measured Concentration of thiamethoxam in soil ([4]; t = 28 days, nominal 0.12 mg/kg dry soil, LUFA 2.2 soil): 0.08 mg/kg dry soil | Measured Concentration of thiamethoxam in soil ([4]; t = 28 days, nominal 0.37 mg/kg dry soil, LUFA 2.2 soil): 0.27 mg/kg dry soil | Recovery Rate ([4]; t = 28 days, nominal 1.1 mg/kg dry soil): 72% | Measured Concentration of thiamethoxam in soil ([4]; t = 28 days, nominal 1.1 mg/kg dry soil, LUFA 2.2 soil): 0.79 mg/kg dry soil | Log KOW [5]: −0.13 | octanol-water partition coefficient [5]: 0.741

N#C/N=C1\SCCN1Cc1ccc(Cl)nc1 [thiacloprid]
half-life in soil ([3]; ref Van Gestel et al. [2017]): 10 to 12 days
